Data reported in the supplement of paper PMC10307832.

Tests used:
Experiment in all cases: relative viability (nuclei count vs DMSO), 5 days (fraction); higher = more cells survive
COR-L 105 = tested on: COR-L 105
How it was run: (§1)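 Each reported value is a median over duplicate plates. It expresses relative viability: treated-well nuclei count divided by vehicle-well nuclei count. Lung cancer cell lines in 1536-well plates were dosed by pin tool a day after seeding, alone with one drug or with a fixed anchor-drug dose plus five library-drug doses (not always all listed) in √10 steps, and nuclei were counted after 5 days.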

LK-2 = tested on: LK-2
How it was run: as §1

LOU-NH91 = tested on: LOU-NH91
How it was run: as §1

NCI-H1666 = tested on: NCI-H1666
How it was run: as §1

HCC-366 = tested on: HCC-366
How it was run: as §1

BEN = tested on: BEN
How it was run: as §1

NCI-H1650 = tested on: NCI-H1650
How it was run: as §1

NCI-H727 = tested on: NCI-H727
How it was run: as §1

NCI-H460 = tested on: NCI-H460
How it was run: as §1

NCI-H441 = tested on: NCI-H441
How it was run: as §1

PC-14 = tested on: PC-14
How it was run: as §1

201T = tested on: 201T
How it was run: as §1

NCI-H2170 = tested on: NCI-H2170
How it was run: as §1

NCI-H3122 = tested on: NCI-H3122
How it was run: as §1

NCI-H2009 = tested on: NCI-H2009
How it was run: as §1

EKVX = tested on: EKVX
How it was run: as §1

ABC-1 = tested on: ABC-1
How it was run: as §1

SW 900 = tested on: SW 900
How it was run: as §1

HARA = tested on: HARA
How it was run: as §1

NCI-H661 = tested on: NCI-H661
How it was run: as §1

NCI-H1437 = tested on: NCI-H1437
How it was run: as §1

SMILES: O=c1cc(N2CCOCC2)oc2c(-c3cccc4c3sc3ccccc34)cccc12 + Nc1ncn([C@H]2C[C@H](O)[C@@H](CO)O2)c(=O)n1 [Decitabine] (partner 2 µM)
- relative viability (COR-L 105; first compound 0.01 µM): 0.622
- relative viability (COR-L 105; first compound 0.03162 µM): 0.7
- relative viability (COR-L 105; first compound 0.1 µM): 0.746
- relative viability (COR-L 105; first compound 0.3162 µM): 0.769
- relative viability (COR-L 105; first compound 1 µM): 0.667
- relative viability (LK-2; first compound 0.01 µM): 0.355
- relative viability (LK-2; first compound 0.03162 µM): 0.324
- relative viability (LK-2; first compound 0.1 µM): 0.338
- relative viability (LK-2; first compound 0.3162 µM): 0.278
- relative viability (LK-2; first compound 1 µM): 0.285
- relative viability (LOU-NH91; first compound 0.01 µM): 0.774
- relative viability (LOU-NH91; first compound 0.03162 µM): 0.794
- relative viability (LOU-NH91; first compound 0.1 µM): 0.83
- relative viability (LOU-NH91; first compound 0.3162 µM): 0.827
- relative viability (LOU-NH91; first compound 1 µM): 0.784
- relative viability (NCI-H1666; first compound 0.01 µM): 0.71
- relative viability (NCI-H1666; first compound 0.03162 µM): 0.762
- relative viability (NCI-H1666; first compound 0.1 µM): 0.713
- relative viability (NCI-H1666; first compound 0.3162 µM): 0.736
- relative viability (NCI-H1666; first compound 1 µM): 0.677
- relative viability (HCC-366; first compound 0.01 µM): 0.331
- relative viability (HCC-366; first compound 0.03162 µM): 0.365
- relative viability (HCC-366; first compound 0.1 µM): 0.413
- relative viability (HCC-366; first compound 0.3162 µM): 0.348
- relative viability (HCC-366; first compound 1 µM): 0.296
- relative viability (BEN; first compound 0.01 µM): 0.73
- relative viability (BEN; first compound 0.03162 µM): 0.748
- relative viability (BEN; first compound 0.1 µM): 0.589
- relative viability (BEN; first compound 0.3162 µM): 0.76
- relative viability (BEN; first compound 1 µM): 0.664
- relative viability (NCI-H1650; first compound 0.01 µM): 0.362
- relative viability (NCI-H1650; first compound 0.03162 µM): 0.384
- relative viability (NCI-H1650; first compound 0.1 µM): 0.489
- relative viability (NCI-H1650; first compound 0.3162 µM): 0.53
- relative viability (NCI-H1650; first compound 1 µM): 0.399
- relative viability (NCI-H727; first compound 0.01 µM): 0.749
- relative viability (NCI-H727; first compound 0.03162 µM): 0.914
- relative viability (NCI-H727; first compound 0.1 µM): 0.796
- relative viability (NCI-H727; first compound 0.3162 µM): 0.954
- relative viability (NCI-H727; first compound 1 µM): 0.773
- relative viability (NCI-H460; first compound 0.01 µM): 0.509
- relative viability (NCI-H460; first compound 0.03162 µM): 0.48
- relative viability (NCI-H460; first compound 0.1 µM): 0.499
- relative viability (NCI-H460; first compound 0.3162 µM): 0.472
- relative viability (NCI-H460; first compound 1 µM): 0.51
- relative viability (NCI-H441; first compound 0.01 µM): 0.279
- relative viability (NCI-H441; first compound 0.03162 µM): 0.255
- relative viability (NCI-H441; first compound 0.1 µM): 0.26
- relative viability (NCI-H441; first compound 0.3162 µM): 0.208
- relative viability (NCI-H441; first compound 1 µM): 0.228
- relative viability (PC-14; first compound 0.01 µM): 0.274
- relative viability (PC-14; first compound 0.03162 µM): 0.272
- relative viability (PC-14; first compound 0.1 µM): 0.191
- relative viability (PC-14; first compound 0.3162 µM): 0.267
- relative viability (PC-14; first compound 1 µM): 0.267
- relative viability (201T; first compound 0.01 µM): 0.843
- relative viability (201T; first compound 0.03162 µM): 0.863
- relative viability (201T; first compound 0.1 µM): 0.83
- relative viability (201T; first compound 0.3162 µM): 0.86
- relative viability (201T; first compound 1 µM): 0.818
- relative viability (NCI-H2170; first compound 0.01 µM): 0.472
- relative viability (NCI-H2170; first compound 0.03162 µM): 0.447
- relative viability (NCI-H2170; first compound 0.1 µM): 0.475
- relative viability (NCI-H2170; first compound 0.3162 µM): 0.457
- relative viability (NCI-H2170; first compound 1 µM): 0.461
- relative viability (NCI-H3122; first compound 0.01 µM): 0.405
- relative viability (NCI-H3122; first compound 0.03162 µM): 0.436
- relative viability (NCI-H3122; first compound 0.1 µM): 0.564
- relative viability (NCI-H3122; first compound 0.3162 µM): 0.452
- relative viability (NCI-H3122; first compound 1 µM): 0.388
- relative viability (NCI-H2009; first compound 0.01 µM): 0.368
- relative viability (NCI-H2009; first compound 0.03162 µM): 0.412
- relative viability (NCI-H2009; first compound 0.1 µM): 0.332
- relative viability (NCI-H2009; first compound 0.3162 µM): 0.368
- relative viability (NCI-H2009; first compound 1 µM): 0.399
- relative viability (EKVX; first compound 0.01 µM): 0.355
- relative viability (EKVX; first compound 0.03162 µM): 0.321
- relative viability (EKVX; first compound 0.1 µM): 0.37
- relative viability (EKVX; first compound 0.3162 µM): 0.282
- relative viability (EKVX; first compound 1 µM): 0.336
- relative viability (ABC-1; first compound 0.01 µM): 1.01
- relative viability (ABC-1; first compound 0.03162 µM): 1.15
- relative viability (ABC-1; first compound 0.1 µM): 1.31
- relative viability (ABC-1; first compound 0.3162 µM): 0.959
- relative viability (ABC-1; first compound 1 µM): 1.09
- relative viability (SW 900; first compound 0.03162 µM): 0.435
- relative viability (SW 900; first compound 0.1 µM): 0.471
- relative viability (SW 900; first compound 0.3162 µM): 0.459
- relative viability (SW 900; first compound 1 µM): 0.456
- relative viability (HARA; first compound 0.01 µM): 0.536
- relative viability (HARA; first compound 0.03162 µM): 0.466
- relative viability (HARA; first compound 0.1 µM): 0.617
- relative viability (HARA; first compound 0.3162 µM): 0.481
- relative viability (HARA; first compound 1 µM): 0.476
- relative viability (NCI-H661; first compound 0.01 µM): 0.563
- relative viability (NCI-H661; first compound 0.03162 µM): 0.53
- relative viability (NCI-H661; first compound 0.1 µM): 0.599
- relative viability (NCI-H661; first compound 0.3162 µM): 0.535
- relative viability (NCI-H661; first compound 1 µM): 0.587
- relative viability (NCI-H1437; first compound 0.01 µM): 0.587
- relative viability (NCI-H1437; first compound 0.03162 µM): 0.562
- relative viability (NCI-H1437; first compound 0.1 µM): 0.638
- relative viability (NCI-H1437; first compound 0.3162 µM): 0.549
- relative viability (NCI-H1437; first compound 1 µM): 0.625
